± gives the standard deviation of the averaged measurements.
Assays:
[1] = system: ST8814; assay: drug sensitivity score (DSS, CellTiter-Glo viability, 72 h) (DSS (dimensionless)); higher = more sensitive; extreme values may be limits of the assay
Outline: (§1)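 MPNST cell lines and primary human Schwann cells were seeded at 750–1000 cells per well into 384-well plates preprinted with each compound at five concentrations in 10-fold steps, then incubated 72 h at 37 °C, 5% CO2. CellTiter-Glo ATP luminescence gave viability, scaled between vehicle and positive-control wells, with duplicates averaged where present. Curves were fitted with a four-parameter logistic model. Percent inhibition refers to the top concentration, while drug sensitivity score and relative IC50, censored at the top concentration, come from these fits.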

[2] = system: HS-PSS; assay: as above
Outline: as §1

[3] = system: STS26T; assay: as above
Outline: as §1

[4] = system: S462; assay: as above
Outline: as §1

[5] = system: HSC2 (primary human Schwann cells); assay: as above
Outline: as §1

[6] = system: YST-1; assay: as above
Outline: as §1

[7] = system: S1507-2; assay: as above
Outline: as §1

[8] = system: HSC1 (primary human Schwann cells); assay: as above
Outline: as §1

[9] = system: HS-Sch-2; assay: as above
Outline: as §1

[10] = system: ST8814; assay: drug sensitivity score (DSS, CellTox-Green cytotoxicity, 72 h) (DSS (dimensionless)); higher = more cytotoxic; extreme values may be limits of the assay
Outline: (§2)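 For 72 h at 37 °C, MPNST cell lines and primary human Schwann cells were exposed in 384-well plates to five 10-fold compound dilutions. CellTox-Green, added before seeding at a final 1:1000 dilution, gave fluorescence from DNA released by disrupted cells. Signals were scaled to vehicle and positive-control wells, cultures failing plate quality control were left out, and four-parameter logistic fits were applied. Relative IC50 and drug sensitivity score were derived from the fits, with IC50 censored at the top concentration.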

[11] = system: HS-PSS; assay: as above
Outline: as §2

[12] = system: STS26T; assay: as above
Outline: as §2

[13] = system: HSC2 (primary human Schwann cells); assay: as above
Outline: as §2

[14] = system: S1507-2; assay: as above
Outline: as §2

[15] = system: HSC1 (primary human Schwann cells); assay: as above
Outline: as §2

[16] = system: ST8814; assay: % inhibition of CellTiter-Glo viability at highest tested concentration (72 h), relative to DMSO and benzethonium chloride controls; higher = more inhibition
Outline: as §1

[17] = system: HS-PSS; assay: as above
Outline: as §1

[18] = system: STS26T; assay: as above
Outline: as §1

[19] = system: S462; assay: as above
Outline: as §1

[20] = system: HSC2 (primary human Schwann cells); assay: as above
Outline: as §1

[21] = system: YST-1; assay: as above
Outline: as §1

[22] = system: S1507-2; assay: as above
Outline: as §1

[23] = system: HSC1 (primary human Schwann cells); assay: as above
Outline: as §1

[24] = system: HS-Sch-2; assay: as above
Outline: as §1

| Structure (SMILES) | drug sensitivity score [1] | drug sensitivity score [2] | drug sensitivity score [3] | drug sensitivity score [4] | drug sensitivity score [5] | drug sensitivity score [6] | drug sensitivity score [7] | drug sensitivity score [8] | drug sensitivity score [9] | drug sensitivity score [10] | drug sensitivity score [11] | drug sensitivity score [12] | drug sensitivity score [13] | drug sensitivity score [14] | drug sensitivity score [15] | % inhibition [16] [%] | % inhibition [17] [%] | % inhibition [18] [%] | % inhibition [19] [%] | % inhibition [20] [%] | % inhibition [21] [%] | % inhibition [22] [%] | % inhibition [23] [%] | % inhibition [24] [%] |
| --- | --- | --- | --- | --- | --- | --- | --- | --- | --- | --- | --- | --- | --- | --- | --- | --- | --- | --- | --- | --- | --- | --- | --- | --- |
| CC(C)c1c(C(=O)Nc2ccccc2)c(-c2ccccc2)c(-c2ccc(F)cc2)n1CC[C@@H](O)C[C@@H](O)CC(=O)O [Atorvastatin] (max concentration tested 10000 nM) | 3.73 | 6.74 | 5.4 | 9.93 ± 0.43 | 19.7 | 6.47 | 2.53 ± 0.48 | 16.6 | 6.02 | 2.32 | 0 | 2.9 | 19.6 | 1.46 ± 2.1 | 17.1 | 55.2 | 75.3 | 69.6 | 96.5 ± 1.1 | 101 | 89.5 | 41.9 ± 8 | 97.5 | 80.5 |
| C[C@]12C=CC(=O)C=C1CC[C@@H]1[C@@H]2[C@@H](O)C[C@@]2(C)[C@H]1CC[C@]2(O)C(=O)CO [Prednisolone] (max concentration tested 10000 nM) | 3.88 | 0 | 0 | 0 | 0 | 0.25 | 0.89 ± 1.3 | 0 | 0 | 0 | 0 | 0 | 0 | 0 | 0 | 15.6 | -16.2 | 3.25 | -0.231 ± 7 | -7.75 | 12 | 11.2 ± 15 | 6.78 | 6 |
| CC[C@H](CC#N)OC(=O)N[C@@H](C)c1cccc(NC(=O)Nc2ccc(-c3cnco3)c(OC)c2)c1 [AVN944] (max concentration tested 10000 nM) | 11.4 | 12.5 | 12.2 | 14.5 ± 1.5 | 20 | 16 | 8.48 ± 0.44 | 18.7 | 8.71 | 7.26 | 0 | 0.427 | 0 | 0 | 0 | 78.7 | 69.4 | 74.3 | 81.8 ± 2.8 | 76.8 | 89.7 | 54.6 ± 5.9 | 71.2 | 60.8 |
| COc1ccc(S(=O)(=O)Nc2cccnc2Nc2ccc(O)cc2)cc1 [ABT-751] (max concentration tested 10000 nM) | 15.1 | 3.98 | 16.3 | 16.8 ± 0.83 | 13.5 | 10.8 | 14 ± 0.54 | 12.3 | 14.3 | 13.5 | 0 | 19 | 12.9 | 11.9 ± 0.12 | 7.1 | 86 | 69 | 94.9 | 96.52 ± 0.26 | 86 | 83.1 | 79.7 ± 4.9 | 76.6 | 87.8 |
| COc1cc(O)c2c(c1)/C=C/C[C@H](O)[C@H](O)C(=O)/C=C\C[C@H](C)OC2=O [(5Z)-7-Oxozeaenol] (max concentration tested 10000 nM) | 7.1 | 1.02 | 6.93 | 6.71 ± 1.1 | 7.92 | 1.67 | 3.4 ± 0.83 | 6.52 | 2.24 | 0.979 | 0 | 2.39 | 1.01 | 2.79 ± 3 | 0.659 | 70.6 | 29.8 | 68.6 | 74.1 ± 6.8 | 76.9 | 26.6 | 51.8 ± 16 | 73.1 | 39.8 |
| CC(C)C[C@H](NC(=O)[C@@H](COC(C)(C)C)NC(=O)[C@H](Cc1ccc(O)cc1)NC(=O)[C@H](CO)NC(=O)[C@H](Cc1c[nH]c2ccccc12)NC(=O)[C@H](Cc1cnc[nH]1)NC(=O)[C@@H]1CCC(=O)N1)C(=O)N[C@@H](CCCNC(=N)N)C(=O)N1CCC[C@H]1C(=O)NNC(N)=O [Goserelin] (max concentration tested 10000 nM) | 0 | 0 | 0 | 0 | 0 | 0 | 0 | 0 | 0.06 | 0 | 0 | 0 | 0 | 0.454 ± 0.64 | 0 | 4.22 | -4.24 | 7.86 | 0.735 ± 5 | -4.29 | -0.8 | -0.69 ± 5 | 6.11 | 11.2 |

— the supplement of paper PMC5579334
